Experimental findings from ChEMBL document CHEMBL3044823, “Design, synthesis, and evaluation of anti-inflammatory and ulcerogenicity of novel pyridazinone derivatives” (Med Chem Res, 2012) are described below.

The test system of series [1] is Rattus norvegicus. Briefly: Ulcerogenicity in Rattus norvegicus Sprague-Dawley (rat) stomach assessed as ulcer score at 50 mg/kg administered via intragastrically after 6 hr by hematoxylin and eosin staining. It counts as toxicity, organism-based. To be noted: in vivo, po. Further details: dose 50 mg/kg, route intragastric.
Series [2] relates to Rattus norvegicus. The series can be described thus: Ulcerogenicity in Rattus norvegicus Sprague-Dawley (rat) stomach assessed as decrease in gastric mucosa layer thickness at 50 mg/kg administered via intragastrically after 6 hr by hematoxylin and eosin staining relative to untreated control. In kind it is toxicity, organism-based. Further details: dose 50 mg/kg, route intragastric; scale not given: the % may be the effect or the level left. To be noted: in vivo, po.

Series [3] relates to Rattus norvegicus. The series can be described thus: Ulcerogenicity in Rattus norvegicus Sprague-Dawley (rat) stomach assessed as appearance of cone shape gastric mucosa layer at 50 mg/kg administered via intragastrically after 6 hr by hematoxylin and eosin staining relative to untreated control. The note with it: in vivo, po. It counts as toxicity, organism-based. Further details: dose 50 mg/kg, route intragastric.

Series [4] deals with Rattus norvegicus. The series can be described thus: Anti-inflammatory activity in Rattus norvegicus Sprague-Dawley (rat) assessed as inhibition of carrageenan-induced paw edema at 10 mg/kg administered 1 hr prior to carrageenan challenge measured at 2 hr relative to control. In kind it is functional.
For series [5], the system named is Rattus norvegicus. Briefly: Anti-inflammatory activity in Rattus norvegicus Sprague-Dawley (rat) assessed as inhibition of carrageenan-induced paw edema at 10 mg/kg administered 1 hr prior to carrageenan challenge measured at 4 hr relative to diclofenac. In kind it is functional. A general note: Carrageenan injected into the paw causes an acute inflammation.
The test system of series [6] is Rattus norvegicus. The series can be described thus: Anti-inflammatory activity in Rattus norvegicus Sprague-Dawley (rat) assessed as inhibition of carrageenan-induced paw edema at 10 mg/kg administered 1 hr prior to carrageenan challenge measured at 4 hr relative to control. It counts as functional.
The test system of series [7] is Rattus norvegicus. The series can be described thus: Anti-inflammatory activity in Rattus norvegicus Sprague-Dawley (rat) assessed as inhibition of carrageenan-induced paw edema at 10 mg/kg administered 1 hr prior to carrageenan challenge measured at 1 hr relative to control. In kind it is functional.

With `O=C(O)c1ccccc1Oc1ccc(=O)[nH]n1`, the UI in series [1] was determined as 2.
With `COc1ccc2c(c1)c(CC(=O)O)c(C)n2C(=O)c1ccc(Cl)cc1` [INDOMETHACIN], the Activity in series [2] is 20%; in series [3], “Toxic”. Moreover, the UI in series [1] amounted to 7.2.
In general, inhibition in vivo refers to the change of the read-out against control, counted positive when it falls. For the compound `O=C(O)Cc1ccccc1Nc1c(Cl)cccc1Cl` [DICLOFENAC], the inhibition in vivo at 10 mg/kg in series [4] stood at 73.5%; in series [5], 100%; in series [6], 78.3%; in series [7] it was 65.3%.
On to `O=c1ccc(Nc2ccccc2Br)n[nH]1`, for which the UI in series [1] is reported as 4.2.
As for `Cc1cccc(C)c1Nc1ccc(=O)[nH]n1`, the UI in series [1] stood at 1.8.
